The source of these data is ChEMBL document CHEMBL2069197 (ACS Med Chem Lett, 2012).

The structures appear in SMILES notation. Some results are limits rather than exact numbers.

In one data set the test system is Rattus norvegicus. The data set is described as follows: Neuroprotective activity in rat assessed as reduction in bilateral cortical contusion-induced cerebral edema at 8 mg/kg, ip administered at 1 hr post-injury followed by 8 mg/kg, sc administered 6 hrs post-injury measured after 24 hrs relative to untreated control. It counts as functional. Set-up: scale not given: the % may be the effect or the level left.

The nature of data set [1]: Neuroprotective activity in cortical neurons assessed as reduction in glutamate-induced cell death at 5 uM incubated for 24 hrs prior to glutamate-challenge measured after 24 hrs by MTT assay. Set-up: scale not given: the % may be the effect or the level left. It counts as functional, Cortical neurone. Background: Tetrazolium assays rely on reduction of a dye to a coloured formazan, in cell work by metabolically active cells.

Data set [2] can be described thus: Aqueous solubility of the compound in phosphate buffered saline after 90 mins by laser nephelometry at pH 4. It counts as physicochemical.
Data set [3] in a line: Aqueous solubility of the compound in phosphate buffered saline after 90 mins by laser nephelometry at pH 7.4. It counts as physicochemical.
The nature of data set [4]: Half life in aqueous media at pH 7. Format: physicochemical. To be noted: aqueous media.
Data set [5] is described as follows: Half life in human plasma. It counts as ADME, cell-free.
A short description of data set [6]: Neuroprotective activity in cortical neurons assessed as reduction in glutamate-induced cell death at 20 uM incubated for 24 hrs prior to glutamate-challenge measured after 24 hrs by MTT assay. It counts as functional, Cortical neurone. On the set-up: scale not given: the % may be the effect or the level left.

For `CC(=O)[C@H]1CC[C@H]2[C@@H]3CCC4=CC(=O)CC[C@]4(C)[C@H]3CC[C@]12C` [PROGESTERONE], the Activity in the data set with Rattus norvegicus is recorded as 62%; in data set [1] it was 4%; in data set [6], 42%. Moreover, the kinetic solubility at 1.5 h in data set [2] and in data set [3] was < 25 µM each time. Further, the half-life in data set [4] is > 10 days; in data set [5] it was 25 min.

For orientation: solubility (kinetic) means the concentration staying in solution when a stock, usually in DMSO, is diluted into the medium. What is called half-life is how long it takes for the measured level to halve.
